Experimental data: ChEMBL document CHEMBL4610120, “New Broad-Spectrum Antibiotics Containing a Pyrrolobenzodiazepine Ring with Activity against Multidrug-Resistant Gram-Negative Bacteria” (J Med Chem, 2020)
In brackets after ≈: the same amount, converted by molar mass.

Assays:
[1] = Selectivity ratio of cytotoxicity against human WI38 cells to MIC for Klebsiella pneumoniae M6; format: toxicity, cell-based
[2] = Selectivity ratio of cytotoxicity against human WI38 cells to MIC for Pseudomonas aeruginosa PAO1; format: toxicity, cell-based
[3] = Selectivity ratio of cytotoxicity against human WI38 cells to MIC for vancomycin sensitive Enterococcus faecalis NCTC 775; format: toxicity, cell-based
[4] = Selectivity ratio of cytotoxicity against human WI38 cells to MIC for vancomycin resistant Enterococcus faecium NCTC 12204; format: toxicity, cell-based
Enterococcus faecalis [5] = assay: Antibacterial activity against vancomycin sensitive Enterococcus faecalis NCTC 775 by microdilution broth method; format: functional
[6] = Selectivity ratio of cytotoxicity against human WI38 cells to MIC for methicillin sensitive Staphylococcus aureus NCTC 6571; format: toxicity, cell-based
Enterococcus faecium = assay: Antibacterial activity against vancomycin resistant Enterococcus faecium NCTC 12204 by microdilution broth method; format: functional
DNA [7] = assay: Stabilization of 5'-FAM-TAT-ATA-TAG-ATA-TTT-TTT-TAT-CTA-TAT-ATA-3'-TAMRA DNA (unknown origin) assessed as reduction in change in melting temperature at 1:1 to 5:1 ligand to DNA ratio measured after 3 hrs by FRET-based assay relative to control; format: ADME, nucleic-acid assay
DNA [8] = assay: Stabilization of 5'-FAM-TAT-AGA-TAT-AGA-TAT-TTT-ATA-TCT-ATA-TCT-ATA-3'-TAMRA DNA (unknown origin) assessed as reduction in change in melting temperature at 1:1 to 5:1 ligand to DNA ratio measured after 3 hrs by FRET-based assay relative to control; format: ADME, nucleic-acid assay
Acinetobacter baumannii = assay: Antimicrobial activity against Acinetobacter baumannii ATCC 17978 by microdilution broth method; format: functional
[9] = Selectivity ratio of cytotoxicity against human WI38 cells to MIC for multidrug-resistant Klebsiella pneumoniae NCTC 13368; format: toxicity, cell-based
Staphylococcus aureus [10] = assay: Antibacterial activity against methicillin sensitive Staphylococcus aureus NCTC 6571 by microdilution broth method; format: functional
[11] = Selectivity ratio of cytotoxicity against human WI38 cells to MIC for multidrug-resistant Acinetobacter baumannii AYE; format: toxicity, cell-based
Pseudomonas aeruginosa = assay: Antimicrobial activity against Pseudomonas aeruginosa PAO1 by microdilution broth method; format: functional
Staphylococcus aureus [12] = assay: Antibacterial activity against methicillin resistant Staphylococcus aureus NCTC 13616 by microdilution broth method; format: functional
[13] = Cytotoxicity against human WI38 cells assessed as cell viability at 20 uM measured after 24 hrs by MTT assay relative to control; format: cell-based, WI-38; details: read-out: Activity
[14] = Selectivity ratio of cytotoxicity against human WI38 cells to MIC for Acinetobacter baumannii ATCC 17978; format: toxicity, cell-based
[15] = Selectivity ratio of cytotoxicity against human WI38 cells to MIC for methicillin resistant Staphylococcus aureus NCTC 13616; format: toxicity, cell-based
[16] = Selectivity ratio of cytotoxicity against human WI38 cells to MIC for methicillin resistant Staphylococcus aureus NCTC 13277; format: toxicity, cell-based
[17] = Selectivity ratio of cytotoxicity against human WI38 cells to MIC for multidrug-resistant Pseudomonas aeruginosa NCTC 13437; format: toxicity, cell-based
Enterococcus faecalis [18] = assay: Antibacterial activity against vancomycin resistant Enterococcus faecalis NCTC 12201 by microdilution broth method; format: functional
[19] = Selectivity ratio of cytotoxicity against human WI38 cells to MIC for vancomycin resistant Enterococcus faecalis NCTC 12201; format: toxicity, cell-based
Staphylococcus aureus [20] = assay: Antibacterial activity against methicillin resistant Staphylococcus aureus NCTC 13277 by microdilution broth method; format: functional
[21] = target: T1, DNA repair protein RecN (Escherichia coli) (UniProt P05824); assay: Induction of Escherichia coli K12 MG1655 recN promotor measured at 30 mins interval for 20 hrs by fluorescence assay relative to control; details: Escherichia coli str. K-12 substr. MG1655
T1 sequence (whole entry): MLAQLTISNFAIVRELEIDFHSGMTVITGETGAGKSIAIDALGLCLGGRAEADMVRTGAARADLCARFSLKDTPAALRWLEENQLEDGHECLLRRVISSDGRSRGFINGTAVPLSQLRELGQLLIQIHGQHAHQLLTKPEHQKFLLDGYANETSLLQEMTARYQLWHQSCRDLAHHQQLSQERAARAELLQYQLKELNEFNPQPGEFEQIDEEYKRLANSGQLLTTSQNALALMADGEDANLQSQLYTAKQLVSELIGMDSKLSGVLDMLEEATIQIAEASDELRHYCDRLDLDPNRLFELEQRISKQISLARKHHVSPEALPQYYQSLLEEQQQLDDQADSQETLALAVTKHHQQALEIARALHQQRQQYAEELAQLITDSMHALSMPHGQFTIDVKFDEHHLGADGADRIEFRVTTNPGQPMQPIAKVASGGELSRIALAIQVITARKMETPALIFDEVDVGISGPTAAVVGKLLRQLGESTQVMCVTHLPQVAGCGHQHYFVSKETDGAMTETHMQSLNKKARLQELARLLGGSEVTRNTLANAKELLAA

[22] = target: T2, LexA repressor (Escherichia coli) (UniProt P0A7C2); assay: Induction of Escherichia coli K12 MG1655 lexA promotor measured at 30 mins interval for 20 hrs by fluorescence assay relative to control; details: Escherichia coli str. K-12 substr. MG1655
T2 sequence (whole entry): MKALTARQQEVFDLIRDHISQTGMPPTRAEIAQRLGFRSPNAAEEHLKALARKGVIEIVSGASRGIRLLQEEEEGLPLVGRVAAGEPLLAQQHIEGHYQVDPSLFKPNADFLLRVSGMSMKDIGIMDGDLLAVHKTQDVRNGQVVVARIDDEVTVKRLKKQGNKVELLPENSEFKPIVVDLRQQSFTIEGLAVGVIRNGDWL

[23] = target: T3, Cell division inhibitor SulA (Escherichia coli K-12) (UniProt P0AFZ5); assay: Induction of Escherichia coli K12 MG1655 sulA promotor measured at 30 mins interval for 20 hrs by fluorescence assay relative to control; details: Escherichia coli str. K-12 substr. MG1655
T3 sequence (whole entry): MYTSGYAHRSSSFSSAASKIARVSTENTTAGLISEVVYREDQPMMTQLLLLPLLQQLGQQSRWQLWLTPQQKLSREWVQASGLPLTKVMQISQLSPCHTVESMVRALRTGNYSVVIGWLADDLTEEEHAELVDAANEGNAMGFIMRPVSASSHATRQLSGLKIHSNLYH

[24] = target: T4, Protein RecA (Escherichia coli K-12) (UniProt P0A7G6); assay: Induction of Escherichia coli K12 MG1655 recA promotor measured at 30 mins interval for 20 hrs by fluorescence assay relative to control; details: Escherichia coli str. K-12 substr. MG1655
T4 sequence (whole entry): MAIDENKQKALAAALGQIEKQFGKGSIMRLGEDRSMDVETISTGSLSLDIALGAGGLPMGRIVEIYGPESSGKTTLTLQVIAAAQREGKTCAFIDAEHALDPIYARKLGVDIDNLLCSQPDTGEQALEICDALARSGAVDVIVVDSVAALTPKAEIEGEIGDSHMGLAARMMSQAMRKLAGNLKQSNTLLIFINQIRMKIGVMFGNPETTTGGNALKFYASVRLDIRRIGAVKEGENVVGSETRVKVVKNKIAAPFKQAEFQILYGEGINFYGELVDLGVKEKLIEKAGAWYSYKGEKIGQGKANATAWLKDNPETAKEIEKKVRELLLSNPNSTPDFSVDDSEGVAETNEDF

SMILES | selectivity ratio [1] | selectivity ratio [2] | selectivity ratio [3] | selectivity ratio [4] | selectivity ratio [6] | MIC (Enterococcus faecium) [µg/mL] | fold change (FC) (DNA [7]) | fold change (FC) (DNA [8]) | MIC (Acinetobacter baumannii) [µg/mL] | selectivity ratio [9] | MIC (Staphylococcus aureus [10]) [µg/mL] | selectivity ratio [11] | MIC (Staphylococcus aureus [12]) [µg/mL] | viability at 24 h, 20 µM [13] [%] | selectivity ratio [14] | selectivity ratio [15] | selectivity ratio [16] | selectivity ratio [17] | MIC (Enterococcus faecalis [18]) [µg/mL] | selectivity ratio [19] | further results
COc1cc2c(cc1OCCCC(=O)Nc1cc(C(=O)Nc3ccc4oc(C(=O)N5CCOCC5)cc4c3)n(C)c1)N=C[C@@H]1CCCN1C2=O | 10 | 10 | 100 | 100 | 100 | ≤ 0.125 | 3 to 4 | 3 to 4 | 8 (≈ 11.7 µM) | 10 | ≤ 0.125 | 10 | ≤ 0.125 | > 85 | 10 | 100 | 100 | 10 | ≤ 0.125 | 100 | MIC (Enterococcus faecalis [5]): ≤ 0.125 µg/mL; MIC (Pseudomonas aeruginosa): > 128 µg/mL
COc1cc2c(cc1OCCCC(=O)Nc1cc(C(=O)Nc3ccc4sc(C(=O)N5CCSCC5)cc4c3)n(C)c1)N=C[C@@H]1CCCN1C2=O | 10 | 10 | 100 | 100 | 100 | ≤ 0.125 | 3 to 4 | 3 to 4 | 2 (≈ 2.8 µM) | 10 | ≤ 0.125 | 10 | ≤ 0.125 | > 85 | 10 | 100 | 100 | 10 | ≤ 0.125 | 100 | MIC (Enterococcus faecalis [5]): ≤ 0.125 µg/mL; MIC (Staphylococcus aureus [20]): ≤ 0.125 µg/mL; MIC (Pseudomonas aeruginosa): 64 µg/mL (≈ 89.5 µM)
CO[C@@H]1[C@@H](OC(N)=O)[C@@H](O)[C@H](Oc2ccc3c(O)c(NC(=O)c4ccc(O)c(CC=C(C)C)c4)c(=O)oc3c2C)OC1(C)C | – | – | – | – | – | – | – | – | – | – | – | – | – | – | – | – | – | – | – | – | fold change (FC) [21]: 14 to 32; fold change (FC) [22]: 5 to 13; fold change (FC) [23]: 17 to 41; fold change (FC) [24]: 20 to 35
COc1cc2c(cc1OCCCC(=O)Nc1cc(C(=O)Nc3ccc4oc(C(=O)N5CCCCC5)cc4c3)n(C)c1)N=C[C@@H]1CCCN1C2=O | 10 | 10 | 100 | 100 | 100 | ≤ 0.125 | 3 to 4 | 3 to 4 | 2 (≈ 2.94 µM) | 10 | ≤ 0.125 | 10 | 0.25 (≈ 0.367 µM) | > 85 | 10 | 100 | 100 | 10 | ≤ 0.125 | 100 | MIC (Staphylococcus aureus [20]): 0.5 µg/mL (≈ 0.734 µM)
COc1cc2c(cc1OCCCC(=O)Nc1cc(C(=O)Nc3ccc4sc(C(=O)N5CCOCC5)cc4c3)n(C)c1)N=C[C@@H]1CCCN1C2=O | 10 | 10 | 100 | 100 | 100 | ≤ 0.125 | 3 to 4 | 3 to 4 | 8 (≈ 11.4 µM) | 10 | ≤ 0.125 | 10 | ≤ 0.125 | > 85 | 10 | 100 | 100 | 10 | ≤ 0.125 | 100 | MIC (Enterococcus faecalis [5]): ≤ 0.125 µg/mL; MIC (Staphylococcus aureus [20]): 0.5 µg/mL (≈ 0.716 µM); MIC (Pseudomonas aeruginosa): 64 µg/mL (≈ 91.6 µM)
